One test deals with 4.5X(−) Pseudomonas. Briefly: Antibiotic resistance: colony growth on LB/agar plates with antibiotics. The class given is cell-based, Pseudomonas mendocina. The settings on record: strain with disrupted 4.5X gene; agar plates, concentration ranging from 5 1μg/mL to 25 μg/mL. As to the method:
(§1) The transformed Pseudomonas mendocina KR-1, carrying the disrupted putative efflux 4.5X gene, was grown on the agar plates in the presence of different antibiotics or high concentration of PHBA. The growth of the strain with the disrupted 4.5X gene was compared with that of wild type Pseudomonas mendocina strain KR-1.
The colonies were innoculated on the LB plates with different antibiotics separately. The antibiotics include Amp (50 μg/mL), Strep (10 μg/mL), Tec (10 μg/mL), Kam (25 μg/mL) and CM (5 μg/mL, 15 μg/mL and 25 μg/mL). The plates were kept at 30° C. for 48 hour. The growth of the colonies was scored based on the growth of wildtype strain KR-1 and the growth of these colonies on LB plates.

The subject of the next test is 4.5X(−). The experiment in a line: Sensitivity to PHBA: cell growth in liquid minimal medium by optical density. The class given is cell-based, Pseudomonas mendocina. The settings on record: in the presence of 50 mM PHBA, same condition for both strains. As to the method:
as §1
The cells were innoculated in the liquid medium consisting of minimal medium (in 1 L solution, sodium phosphate, monobasic, 1.85 g; potassium phosphate, dibasic, 5.84 g; ammonia sulphate, 1.5 g; yeast extract, 500 mg; 1x minerals, 2% glucose and 50 mM PHBA). The cultures were kept at 30° C. in a shaker incubator for 48 hours. The cell growth was monitored by optical density (O.D) measurements using a spectrophotometer.

SMILES strings stand for the structures.

For the compound `O=C(N[C@H](CO)[C@H](O)c1ccc([N+](=O)[O-])cc1)C(Cl)Cl` [CM, choromphenecol], the “Growth on plates with chloramphenicol” value with 4.5X(−) Pseudomonas is on record as “unable to grow”.

Consider `O=C(O)c1ccc(O)cc1` [PHBA, p-hydroxybenzoic acid], for which the “Growth of 4.5X(−) strain relative to wildtype strain” value in the test with 4.5X(−) was “four times slower”.

(Values after patent US6410265B1, “Gene encoding a putive efflux protein for solvents/antibiotics in Pseudomonas mendocina” (priority 1997, dated 2002).)
